Results published in patent EP4080216A1, “METHODS DETERMINING THE POTENTIAL OF DRUGS FOR TREATING BACTERIAL INFECTIONS AND COMPOSITION FOR TREATING BACTERIAL INFECTIONS” (priority 2021, dated 2022).
Entries after “also recorded” stand apart in the source; their conditions may differ.

What was measured:
[1] = test system: Hox8b-derived murine dendritic cells; assay: adhesion assay: adhesion of dendritic cells infected with type I piliated (ON) bacteria, Hoechst fluorescence plate reader and brightfield images; type: cell-based; conditions: ON bacteria at multiplicity of infection of 10, 18 to 20 hours post infection
Method: In one embodiment, the dendritic cells are dendritic cells from any mammalian species such as human, primate, mouse, cow, pig, dog, goat, rabbit, rat and cow. In one embodiment, the dendritic cells are human or murine dendritic cells. In another embodiment, the dendritic cells are established dendritic cell lines. In another embodiment, the dendritic cells are human dendritic cell lines such as Thp-1, HL-60, MUTZ-3, U937, KG-1 and PDMC05. In one embodiment, the dendritic cells are cultured in regular cell culture dishes or cell culture plates known to the skilled person in the art. In another embodiment, the cell culture dishes or cell culture plates are treated with different extracellular matrix components such as fibronectin or fibrinogen or combinations thereof. In another embodiment, genetically modified dendritic cells are used. In a preferred embodiment, the genetically modified dendritic cells express a fluorescent marker. In a particularly preferred embodiment, the genetically modified dendritic cells have a fluorescently labelled actin cytoskeleton. In a particularly preferred embodiment, the genetically modified dendritic cells express LifeAct®-GFP and therefore, have a fluorescently labelled actin cytoskeleton. In one embodiment, the dendritic cells are infected with the bacteria at a multiplicity of infection of 1-100 (1-100 bacteria per 1 dendritic cell). The skilled person is aware that infected dendritic cells are activated dendritic cells. In another embodiment, the dendritic cells are infected with the bacteria at a multiplicity of infection of 1-30 (1-30 bacteria per 1 dendritic cell). In a particularly preferred embodiment, the dendritic cells are infected with the bacteria at a multiplicity of infection of 10 (10 bacteria per 1 dendritic cell). In one embodiment, the infection causing type I piliated gram-negative bacteria are causing neonatal meningitis. In another embodiment, the infection causing type I piliated gram-negative bacteria are causing inflammatory bowel diseases such as Crohn's disease or ulcerative colitis. In one embodiment, the infection causing type I piliated gram-negative bacteria causes Crohn's disease. In another embodiment, the infection causing type I piliated gram-negative bacteria causes ulcerative colitis. In yet another embodiment, the infection causing type I piliated gram-negative bacteria causes gastrointestinal disorders or gastrointestinal diseases such as salmonellosis. In a preferred embodiment, the infection causing type I piliated gram-negative bacteria cause urinary tract infections. In a particularly preferred embodiment, the type I piliated gram-negative bacteria causing urinary tract infections are uropathogenic E. coli. […]

CD14 = assay: bead assay: binding of fluorescent FimH-expressing (ON) bacteria to CD14-coupled magnetic beads, flow cytometry; parameters: species or system murine
Method: In one embodiment, the CD14 protein is a recombinant chimeric protein. In a preferred embodiment, the CD14 protein comprises the murine N-terminal of CD14 which is bound to protein A on the magnetic beads via the Fc tail. In another embodiment, the magnetic beads are pre-coated with protein A. In one preferred embodiment, a fluorescent marker is stably integrated into the DNA of the bacteria. The stable integration of a fluorescent marker into the bacteria DNA is performed by any conventional means known to the skilled person such as by transforming the bacteria with a conditional-replication, integration, and modular (CRIM) plasmid. In another embodiment, the fluorescent marker is transiently integrated into the DNA of the bacteria. The transient integration of a fluorescent marker into the bacteria DNA is performed by any conventional means known to the skilled person such as by transforming the bacteria with a plasmid harbouring the fluorescent marker. In another embodiment, the DNA is visualized by a fluorescent marker added after step f). In a preferred embodiment, the fluorescent marker added after step f) is a fluorescent dye. In the latter embodiment, the fluorescent marker or fluorescent dye is thiazole orange, Hoechst 3342, Hoechst 3358, or carboxyfluorescein diacetate (CFDA) and its derivatives. In one embodiment, the infection causing type I piliated gram-negative bacteria are causing neonatal meningitis. In another embodiment, the infection causing type I piliated gram-negative bacteria are causing inflammatory bowel diseases such as Crohn's disease or ulcerative colitis. In one embodiment, the infection causing type I piliated gram-negative bacteria causes Crohn's disease. In another embodiment, the infection causing type I piliated gram-negative bacteria causes ulcerative colitis. In yet another embodiment, the infection causing type I piliated gram-negative bacteria causes gastrointestinal disorders or gastrointestinal diseases such as salmonellosis. In a preferred embodiment, the infection causing type I piliated gram-negative bacteria cause urinary tract infections. In a particularly preferred embodiment, the type I piliated gram-negative bacteria causing urinary tract infections are uropathogenic E. coli. In one embodiment, the incubation of the type I piliated gram-negative bacteria with the CD14-coupled magnetic beads and the added drug or compound lasts between ten minutes and six hours. In one embodiment, the incubation takes between 30 minutes and three hours. In a particularly preferred embodiment, the incubation takes between 45 and 90 minutes. In one embodiment, the added drug or compound is an inhibitor, antibody or antibiotic. […]

CNC(=O)c1cc(C(=O)NC)cc(-c2ccc(O[C@H]3O[C@H](CO)[C@@H](O)[C@H](O)[C@@H]3O)c(C)c2)c1 [M4284]
adhesion of dendritic cells ([1]; 10 µM): resulted in decreased adhesion; also recorded: partially able to do so
inhibit binding of ON bacteria to CD14-coupled beads (CD14; 10 µM, UPEC ON bacteria, one hour at 4 °C): prevented binding; also recorded: able to inhibit binding

Cc1c2c(c(O)c3c(O)cccc13)C(=O)[C@]1(O)C(=O)C(C(N)=O)=C(O)[C@@H](N(C)C)[C@@H]1C2 [anhydrotetracycline]
adhesion of dendritic cells ([1]; concentration not given): increased adhesion even further; also recorded: significantly increased adhesion
prevent binding of ON bacteria to CD14-coupled beads (CD14; sub-minimal inhibitory concentrations, ON bacteria): not able to prevent binding

D-mannose
adhesion of dendritic cells ([1]; 175 µM): did not decrease adhesion
adhesion of dendritic cells ([1]; 1 mM): resulted in decreased adhesion; also recorded: partially able to do so
block binding of ON bacteria to CD14 (CD14; 175 µM, UPEC ON bacteria, one hour at 4 °C): not sufficient to block binding
inhibit binding of ON bacteria to CD14-coupled beads (CD14; 1 mM, UPEC ON bacteria, one hour at 4 °C): prevented binding; also recorded: able to inhibit binding
